# Measured values: paper doi:10.1101/2025.06.12.659322v2 (biorxiv, 2025)
# Molecular target: Rv0183 (mtbMGL) (Mycobacterium tuberculosis, UniProt O07427)
# Test: biochemical
# Sequence of Rv0183 (mtbMGL) (O07427 whole entry): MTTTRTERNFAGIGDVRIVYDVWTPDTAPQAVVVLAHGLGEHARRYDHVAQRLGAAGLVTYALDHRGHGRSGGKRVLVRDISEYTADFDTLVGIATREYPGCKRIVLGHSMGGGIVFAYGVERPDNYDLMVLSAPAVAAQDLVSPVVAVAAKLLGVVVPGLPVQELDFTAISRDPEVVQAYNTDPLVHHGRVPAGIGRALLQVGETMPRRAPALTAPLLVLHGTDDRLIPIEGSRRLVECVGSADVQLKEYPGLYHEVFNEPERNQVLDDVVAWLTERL
smiles,measurement,value
"COc1ccc(-n2nc(C(=O)N3CC[C@@H](O)C3)cc2-c2ccccc2Cl)cc1 [ELF1, (R)-(5-(2-chlorophenyl)-1-(4-methoxyphenyl)-1H-pyrazol-3-yl)(3-hydroxypyrrolidin-1-yl)methanone]",IC50,9.55 µM
"COc1ccc(Nc2cc(-n3cc(C(=O)N4CC[C@@H](O)C4)cn3)ncn2)cc1 [ELF5, (R)-(3-hydroxypyrrolidin-1-yl)(1-(6-((4-methoxyphenyl)amino)pyrimidin-4-yl)-1H-pyrazol-4-yl)methanone]",IC50,8.51 µM
"O=C(c1ccc(-c2cnc(-c3cccc(OC(F)(F)F)c3)o2)cc1)N1CC[C@@H](O)C1 [ELF8, (R)-(3-hydroxypyrrolidin-1-yl)(4-(2-(3-(trifluoromethoxy)phenyl)oxazol-5-yl)phenyl)methanone]",IC50,4.26 µM
